Test systems include LXFL 529 NSCLC; RXF-631 renal; XF 498 CNS; DMS 273 small cell lung; KM20L2 colon; HOP-18 NSCLC; MCF7 breast; NCI/ADR-RES ovarian; MDA-N.
Experiment in all cases: NCI-60 cell line screen, 48 h

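Step 1: Grow cells in 96-well plates. Step 2: Expose to compound for 48 hours at 5 concentrations. Step 3: Interpolate endpoints linearly; if unreached, use highest concentration. Abbreviation: GI50, concentration required for 50% inhibition of growth. Definition used: TGI = concentration required for complete inhibition of growth.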 A value given as a limit tells only on which side of the number the result lay.

Take `O=C1C2=C(SCCS2)C(=O)c2ccccc21`: the TGI in the assay on LXFL 529 NSCLC came out at 3.02 µM; in the assay on RXF-631 renal it was 3.28 µM; in the assay on XF 498 CNS it was 3.01 µM; with DMS 273 small cell lung, 3.31 µM; in the assay with KM20L2 colon, 3.52 µM.
Regarding `O=C1NC2(CCCCC2)C2CCCCC(O)C12` (configuration not stated), the TGI in the assay on LXFL 529 NSCLC, with RXF-631 renal, with DMS 273 small cell lung and in the assay with KM20L2 colon was more than 100 µM each time.
On to `O=C(/C=C/c1ccccc1Cl)c1ccc(Cl)c(Cl)c1`, for which the TGI was determined as 29.6 µM in the assay with LXFL 529 NSCLC, 37.5 µM with DMS 273 small cell lung, 32 µM in the assay on HOP-18 NSCLC and 31.1 µM in the assay on KM20L2 colon.
Turning to `COc1ccc2nc3cc(Cl)ccc3c(Sc3ccccc3[N+](=O)[O-])c2c1`, the TGI with LXFL 529 NSCLC was more than 100 µM; with RXF-631 renal, more than 100 µM; in the assay with XF 498 CNS, 97.8 µM; in the assay on DMS 273 small cell lung, more than 100 µM; in the assay with HOP-18 NSCLC, more than 100 µM; in the assay on KM20L2 colon, more than 100 µM.
`CC(=O)OC1COC(n2c(=S)n(-c3ccc(C)cc3)c(=O)c3ccccc32)C(OC(C)=O)C1OC(C)=O` (configuration not stated): the TGI in the assay with LXFL 529 NSCLC, with RXF-631 renal, with XF 498 CNS, with DMS 273 small cell lung, in the assay with HOP-18 NSCLC and in the assay on KM20L2 colon was more than 100 µM throughout.
Consider `COc1ccccc1NC(=O)CC(=O)n1nc(C)c(N=Nc2ccccc2C(=O)O)c1C`, for which the TGI with LXFL 529 NSCLC, in the assay with XF 498 CNS, in the assay on DMS 273 small cell lung and in the assay on KM20L2 colon was more than 100 µM each time.
`Cc1nc2c(nc1C)C(=O)c1ccccc1C2=O`: the TGI in the assay on LXFL 529 NSCLC was more than 58.3 µM; in the assay with RXF-631 renal it was 46.1 µM; in the assay with MCF7 breast, 3.59 µM; with NCI/ADR-RES ovarian, 17.1 µM; with DMS 273 small cell lung it was 15.3 µM; with MDA-N, 0.562 µM. The TGI came out at 9.53 µM with HOP-18 NSCLC and 36.3 µM with KM20L2 colon.
In the case of `CN(CC(=O)O)S(=O)(=O)c1ccc2ccccc2c1`, the TGI with LXFL 529 NSCLC, in the assay with RXF-631 renal, in the assay on XF 498 CNS, with DMS 273 small cell lung, with HOP-18 NSCLC and with KM20L2 colon was more than 100 µM each time.
Turning to `O=C1c2ccccc2C(=O)c2sc(Nc3cccc(Cl)c3)nc21`, the TGI in the assay with LXFL 529 NSCLC was determined as 2.86 µM; in the assay on MCF7 breast it was 2.46 µM; in the assay with XF 498 CNS, 3.18 µM; in the assay on NCI/ADR-RES ovarian it was 4.78 µM; in the assay on DMS 273 small cell lung, 3.59 µM; in the assay on HOP-18 NSCLC, 3.48 µM. The TGI in the assay with KM20L2 colon was determined as 20.2 µM. Also, the GI50 with MCF7 breast is 0.596 µM; in the assay on NCI/ADR-RES ovarian, 2.01 µM.
On to `CC1(C)OC(=O)C(=Cc2ccc(O)cc2)C(=O)O1`, for which the TGI with LXFL 529 NSCLC, in the assay with XF 498 CNS, in the assay on DMS 273 small cell lung and in the assay with KM20L2 colon was more than 100 µM each time.
Regarding `CCNC1C2(CCCCC2)NC(=O)C12CCCCC2` (configuration not stated), the TGI with LXFL 529 NSCLC, in the assay with XF 498 CNS, in the assay with DMS 273 small cell lung and in the assay with KM20L2 colon was more than 100 µM in each case.
With `O=[S@@]1Nc2ccc(Br)cc2S1`, the TGI in the assay on LXFL 529 NSCLC, in the assay on RXF-631 renal, in the assay with XF 498 CNS, with DMS 273 small cell lung and in the assay with KM20L2 colon was more than 100 µM each time.
As for `N#CC(C#N)=c1ccc(=C2NCC3CCCN23)cc1` (configuration not stated), the TGI in the assay with LXFL 529 NSCLC, in the assay with DMS 273 small cell lung, with HOP-18 NSCLC and in the assay with KM20L2 colon was more than 100 µM each time.
Turning to `CC1CN1P1(N2CC2C)=NP(N2CC2C)(N2CC2C)=NP(N2CC2C)(N2CC2C)=N1` (configuration not stated), the TGI in the assay on LXFL 529 NSCLC, with XF 498 CNS, in the assay on DMS 273 small cell lung, in the assay with HOP-18 NSCLC and in the assay with KM20L2 colon was more than 50 µM in each case.
For the molecule `COc1ccc(-c2cc(=O)c3ccc(O)cc3o2)c(OC)c1OC`, the TGI in the assay with LXFL 529 NSCLC, with XF 498 CNS and with KM20L2 colon was more than 100 µM in each case.
In the case of `CC(=O)OC(C)C(=O)C1c2cccc(O)c2C(=O)c2c(O)cc(C)cc21` (configuration not stated), the figures for the TGI in the assay on XF 498 CNS, in the assay on DMS 273 small cell lung and in the assay on KM20L2 colon were 0.465 µM, 1.85 µM and 2.72 µM, respectively.
For the molecule `CCOC(=O)C1=C(C)CC2C(=O)OC(=O)C2C1(C)C` (configuration not stated), the TGI with LXFL 529 NSCLC and with HOP-18 NSCLC was more than 100 µM in each case.
`O=C(N/C(=C\c1cc(Cl)ccc1Cl)c1nc2[nH]c(=S)[nH]c(=O)c2[nH]1)c1ccccc1`: the TGI in the assay on LXFL 529 NSCLC was 45.2 µM; in the assay on RXF-631 renal it was more than 82.7 µM; in the assay with XF 498 CNS, more than 100 µM; with KM20L2 colon, more than 100 µM.
Regarding `CSCCCN(CCCSC)CCCSC`, the TGI in the assay with MCF7 breast, with NCI/ADR-RES ovarian and in the assay with MDA-N was more than 100 µM throughout.
For `COc1cccc(NC(=O)CC(=O)n2nc(C)c(N=Nc3ccccc3)c2C)c1`, the TGI was more than 100 µM in the assay with LXFL 529 NSCLC; more than 100 µM in the assay with RXF-631 renal; more than 100 µM in the assay on XF 498 CNS; more than 100 µM in the assay with DMS 273 small cell lung; 71.4 µM with HOP-18 NSCLC.
With `Cc1ccc(-c2nnc(-c3ccc4ccccc4c3)o2)cc1`, the TGI in the assay with MCF7 breast is more than 100 µM; in the assay with NCI/ADR-RES ovarian, more than 79.2 µM; in the assay on MDA-N it was more than 100 µM.

These data come from PubChem BioAssay (NCI).
